Marks after values point to notes of the source that are not given here.
Key:
[1] = test system: spontaneous activities of mice; assay: Effects on spontaneous activities of mice; settings: Mean ± SD, n=10
Method: Mice weighing 18-22 g, half male and half female, were placed in the laboratory 24 hours before the test to adapt to the environment. The room temperature was controlled at 24±2° C. Animals were fasted for 8 hours before testing, and then placed in a transparent cage. The number of spontaneous activities of mice was counted by an automatic device (model XZ-4 by Drug Research Institute of China Academy of Medical Sciences). Mice were pre-screened by counting their spontaneous activities for five minutes and unqualified mice were excluded. A total of 110 mice were selected and divided into 11 groups with 10 mice in each group.
Chlorpromazine (3 mg/kg) was used as the positive control. The dose volume was 0.2 mL/10 gram and infusion rate was 0.2 mL/10 seconds.

[2] = test system: motor balance and coordination; assay: Motor balance and coordination, modified beam walking method; settings: mice, n=10

Cc1ncc([N+](=O)[O-])n1CC(O)CCl (racemic) [Racemic ornidazole, 1-(3-Chloro-2-hydroxypropyl)-2-methyl-5-nitroimidazole]
Spontaneous Activities (per 5 min) ([1]; 40 mg/kg i.v., 0.5 h post-dose): 79 ± 26 per 5 min
Spontaneous Activities (per 5 min) ([1]; 40 mg/kg i.v., 1 h post-dose): 56 ± 37 per 5 min
Spontaneous Activities (per 5 min) ([1]; 40 mg/kg i.v., 2 h post-dose): 63 ± 23 per 5 min
Spontaneous Activities (per 5 min) ([1]; 40 mg/kg i.v., 3 h post-dose): 62 ± 24 per 5 min
Spontaneous Activities (per 5 min) ([1]; 40 mg/kg i.v., 4 h post-dose): 72 ± 35 per 5 min
Spontaneous Activities (per 5 min) ([1]; 80 mg/kg i.v., 0.5 h post-dose): 48 ± 35 per 5 min
Spontaneous Activities (per 5 min) ([1]; 80 mg/kg i.v., 1 h post-dose): 26 ± 19 per 5 min
Spontaneous Activities (per 5 min) ([1]; 80 mg/kg i.v., 2 h post-dose): 32 ± 21 per 5 min
Spontaneous Activities (per 5 min) ([1]; 80 mg/kg i.v., 3 h post-dose): 55 ± 27 per 5 min
Spontaneous Activities (per 5 min) ([1]; 80 mg/kg i.v., 4 h post-dose): 61 ± 20 per 5 min
Spontaneous Activities (per 5 min) ([1]; 160 mg/kg i.v., 0.5 h post-dose): 29 ± 17 per 5 min
Spontaneous Activities (per 5 min) ([1]; 160 mg/kg i.v., 1 h post-dose): 22 ± 14 per 5 min
Spontaneous Activities (per 5 min) ([1]; 160 mg/kg i.v., 2 h post-dose): 21 ± 12 per 5 min
Spontaneous Activities (per 5 min) ([1]; 160 mg/kg i.v., 3 h post-dose): 30 ± 13 per 5 min
Spontaneous Activities (per 5 min) ([1]; 160 mg/kg i.v., 4 h post-dose): 51 ± 23 per 5 min
Number of Animals Fall Off ([2]; 40 mg/kg, 0.5 hours post-dose): 1
Number of Animals Fall Off ([2]; 40 mg/kg, 1 hours post-dose): 0
Number of Animals Fall Off ([2]; 40 mg/kg, 2 hours post-dose): 0
Number of Animals Fall Off ([2]; 40 mg/kg, 3 hours post-dose): 0
Number of Animals Fall Off ([2]; 40 mg/kg, 4 hours post-dose): 0
Number of Animals Fall Off ([2]; 80 mg/kg, 0.5 hours post-dose): 0
Number of Animals Fall Off ([2]; 80 mg/kg, 1 hours post-dose): 0
Number of Animals Fall Off ([2]; 80 mg/kg, 2 hours post-dose): 2
Number of Animals Fall Off ([2]; 80 mg/kg, 3 hours post-dose): 0
Number of Animals Fall Off ([2]; 80 mg/kg, 4 hours post-dose): 0
Number of Animals Fall Off ([2]; 160 mg/kg, 0.5 hours post-dose): 10##
Number of Animals Fall Off ([2]; 160 mg/kg, 1 hours post-dose): 8##
Number of Animals Fall Off ([2]; 160 mg/kg, 2 hours post-dose): 6
Number of Animals Fall Off ([2]; 160 mg/kg, 3 hours post-dose): 4
Number of Animals Fall Off ([2]; 160 mg/kg, 4 hours post-dose): 3
